Test results reported in US20060216299A1, “Cell cycle targets and peptides” (Rigel Pharmaceuticals, Inc., priority 2002, published 2006).
Where no end group is shown, it is not given here.

Tests used:
A549.tTA cells [1] = test: Cell tracker assay (Dil) of GFP fusion peptides; type: cell-based; settings: for cell death after infection of retrovirus encoding GFP fused peptides: A549.tTA cells, data not shown; for anti-proliferative effect (cell tracker assay, in words): GFP-fused peptides expressed in A549.tTA cells
Protocol: A549.tTA cells were infected with tet-regulatable retroviruses expressing GFP fusion peptides, stained with the cell tracker dye, Dil, and incubated at 37° C. for five days. After the incubation, fluorescent intensity of GFP and Dil was analyzed with MoFlo. A growth ratio was obtained as the ratio of mean Dil fluorescent intensity for the GFP positive population relative to that of the GFP negative population.
Effect of GFP fused peptides and their mutants. GFP fused peptides (#40, #41, #88 and their mutants) expressing A549.tTA cells were stained with Dil and fluorescent intensity of GFP and Dil was examined with MoFlo. A growth ratio was obtained as described above. Mutated residues were underlined. Amino acid sequences of #40, #41, and #88 were aligned with leucine-rich motifs of HIV-1 Rev (amino acid position 75 to 84, gi|16118296|gb|AAL12672.1|), HTLV-1 Rex (amino acid position 82 to 93, gi|7963889|gb|AAF71372.1), Mitogen-activated protein kinase kinase 1, MAPKK, (amino acid position 33 to 43, gi|5579478|ref|NP_002746.1|), Human homologue of mouse double minute 2, Hdm-2, (amino acid position 190 to 200, gi|4505137|ref|NP_002383.1|), and Protein kinase inhibitor, PKI (amino acid position 38 to 48, gi|203271|gb|AAA40867.1|).
Effect of GFP fused peptides and their mutants. A549.tTA cells were infected with retroviruses encoding GFP fusion peptides (#38 and its mutants) and stained with the cell tracker dye, Dil. After the infection, fluorescent intensity of GFP and Dil was examined with MoFlo. A growth ratio was obtained as the ratio of mean Dil fluorescent intensity for the GFP positive population relative to that of the GFP negative population and data are shown as mean±SE in duplicate. Mutated residues or non-identical residues of the C-terminus of cell division cycle 42 isoform 2, CDC42C, (amino acid position 183 to 191, gi|16357472|ref|NP_426359.1|) to #38 were underlined. As controls, entire GFP-C20 library, dsGFP and GFP fused p21C expressing A549.tTA cells were used.

A549.tTA cells [2] = test: Cell cycle analysis (Hoechst 33258) of cells expressing GFP fusion peptides; type: cell-based, human; settings: GFP low (R1) and GFP high (R2) populations
Protocol: A549.tTA cells expressing GFP fusion peptides were fixed with Cell Fixation/Permeabilization Kits (BD bioscience, Lexington, Ky., U.S.A.) as manufacturer's recommendation and stained with 5 mM Hoechst 33258 (Sigma, St. Louis, Mo., U.S.A.). GFP and Hoechst fluorescent intensity was analyzed with MoFlo.

[3] = tested on: A549 cells expressing GFP fusion #38 and #41; test: Displacement of cellular localization of GFP fusion peptides by synthetic analogues; type: cell-based, human; settings: 100 μM peptide, 5 hours
Protocol: GFP fused #38, #40, and #41 were concentrated at the plasma membrane and granular cytoplasmic structures. […] We examined whether synthetic analogues can displace cellular localization of GFP fusion peptides. A549 cells expressing GFP fusion #38 and #41 were incubated with 100 μM of K7—#41, K7—#41M and K7—#40 for 5 hours and GFP localization was analyzed using a fluorescent microscope.

A549 cells = test: High content imaging of anti-proliferative synthetic K7 peptides (nuclei and apoptotic nuclei, 24 hours); type: cell-based, human
Protocol: A549 cells (American Type Culture Collection (ATCC), Manassas, Va., U.S.A.) were plated at 2000 cells/well in 96 well plates with F12K media supplemented with 10% fetal bovine serum and 1% penicillin/streptomycin and allowed to grow for 24 hours. Peptide dissolved in media was added to the cells to a final concentration ranging from 0.8 to 25 uM in triplicate. Following incubation with peptide for 24 hours, cells were fixed with 3.7% formaldehyde for 30 minutes, rinsed in PBS and stained with DAPI (Molecular Probes) to label nuclear DNA. Digital images were taken of the labeled nuclei in each well using a Zeiss Axiovert microscope, UV filter set and Photometrics camera.

[4] = tested on: A549 lung carcinoma cells; test: Fluorescence microscopy examination of A549 cells exposed to lys7-peptides (nuclei, apoptosis, cell cycle stage, 48 hours); type: cell-based, human
Protocol: A549 tumor cells (American Type Culture Collection, Fairfax Va.) were plated at 2000 cells per well in 96 well plates with F12k media supplemented with 10% fetal bovine serum and 1% penicillin/streptomycin and allowed to grow for 24 hours. Peptide dissolved in media was added to the cells to a final concentration of 0.8 to 100 uM in triplicate. Following incubation with peptide for 24 or 48 hours, cells were fixed with 3.7% formaldehyde for 30 minutes, rinsed in PBS and stained with DAPI (Molecular Probes, OR) to label nuclear DNA. Digital images of the labeled nuclei in each well were taken using a Zeiss Axiovert microscope, UV filter set and Photometrics camera.

[5] = Table 1, GFP fused peptides in A549.tTA cells, ratio of mean Dil fluorescent intensity, GFP positive relative to GFP negative population, five days
[6] = Table 2, GFP fusion #38 and mutants in A549.tTA cells, ratio of mean Dil intensity, GFP positive relative to GFP negative, duplicate

For “RWDPTRLLRFRFLRALVRRSRPVRP (also: GFP fusion) [#40(M15A)]”, the “Growth Ratio (mean ± SE)” value (A549.tTA cells [1]; [5]) was 2.0.
In the case of “ASGLLKLVQAKRKCCIS (cysteine pairing not given here; also: GFP fusion) [#38(T1A)]”, the “Growth Ratio (mean ± SE)” value (A549.tTA cells [1]; [6]) was 3.5 ± 0.2.
In the case of “RWDPTRLLRFRFARALVRRSRPVRP (also: GFP fusion) [#40(L13A/M15A)]”, the “Growth Ratio (mean ± SE)” value (A549.tTA cells [1]; [5]) was 1.6 ± 0.2.
In the case of “GRGCIFRWRRGLRGMMRLFK (also: GFP fusion) [#41, anti-proliferative peptide tested as GFP fusion]”, the “cell cycle profile (DNA content, Hoechst 33258)” value (shortened to “cell cycle profile”) (A549.tTA cells [2]) was “arrested in G0/G1”, the “cell death after infection of retrovirus encoding GFP fused peptides” value (“cell death after infection” below) (A549.tTA cells [1]) was “did not observe massive cell death” and the “anti-proliferative effect (cell tracker assay, in words)” value (shortened to “anti-proliferative effect”) (A549.tTA cells [1]) was “significant inhibitors of cell proliferation”. For the same substance, the “Growth Ratio (mean ± SE)” value (A549.tTA cells [1]; [5]) was 2.7 ± 0.2.
“GRGCIFRWRRGARGMARAFK (also: GFP fusion) [#41(L12A/M16A/L18A)]” was tested, and the “anti-proliferative effect” value (A549.tTA cells [1]) was “no significant localization or anti-proliferative effect” and the “Growth Ratio (mean ± SE)” value (A549.tTA cells [1]; [5]) was 1.1 ± 0.1.
For “RWDPTRLLRARFARALVRRSRPVRP (also: GFP fusion) [#40(F10A/L13A/M15A)]”, the “Growth Ratio (mean ± SE)” value (A549.tTA cells [1]; [5]) was 1.3 ± 0.1.
For “TSGLLKLVQAKRKCCIS ({GFP}-TSGLLKLVQAKRKCCIS; not fully specified; cysteine pairing not given here) [#38, 17mer anti-proliferative peptide with CAAX box motif, tested fused to the C-terminus of GFP]”, the “cell cycle profile” value (A549.tTA cells [2]) was “arrested in G0/G1”, the “cell death after infection” value (A549.tTA cells [1]) was “did not observe massive cell death” and the “anti-proliferative effect” value (A549.tTA cells [1]) was “significant inhibitors of cell proliferation”. The “Growth Ratio (mean ± SE)” value (A549.tTA cells [1]; [6]) was 2.5 ± 0.2.
In the case of “TSGLLALVQAKRKCCIS (cysteine pairing not given here; also: GFP fusion) [#38(K6A)]”, the “anti-proliferative effect” value (A549.tTA cells [1]) was “reduced anti-proliferative effect” and the “Growth Ratio (mean ± SE)” value (A549.tTA cells [1]; [6]) was 1.4 ± 0.1.
For RLRRICSGILLIRRILGIFVRPVRP [#88], the “cell cycle profile” value (A549.tTA cells [2]) was “no significant change in the DNA content profile”, the “cell death after infection” value (A549.tTA cells [1]) was “did not observe massive cell death” and the “anti-proliferative effect” value (A549.tTA cells [1]) was “significant inhibitors of cell proliferation”. For the same substance, the “Growth Ratio (mean ± SE)” value (A549.tTA cells [1]; [5]) was 2.7 ± 0.4.
For “TSGLLKAVQAKRKCCIS (cysteine pairing not given here; also: GFP fusion) [#38(L7A)]”, the “Growth Ratio (mean ± SE)” value (A549.tTA cells [1]; [6]) was 2.0 ± 0.2.
With “KRRQTSMTDFYHSKRRLIFSKRKP [p21C, reference compound]” the “anti-proliferative effect” value (A549.tTA cells [1]) was “significant antiproliferative effect”, the “Growth Ratio (mean ± SE)” value (A549.tTA cells [1]; [5]) was 4.5 ± 0.8 and the “Growth Ratio (mean ± SE)” value (A549.tTA cells [1]; [6]) was 4.5 ± 0.8.
With “RLRRICSGILLIRRIAGAFVRPVRP (also: GFP fusion) [#88(L16A/L18A)]” the “Growth Ratio (mean ± SE)” value (A549.tTA cells [1]; [5]) was 1.1.
“TAGLLKLVQAKRKCCIS (cysteine pairing not given here; also: GFP fusion) [#38(S2A)]” was tested, and the “anti-proliferative effect” value (A549.tTA cells [1]) was “enhanced” and the “Growth Ratio (mean ± SE)” value (A549.tTA cells [1]; [6]) was 5.5 ± 0.8.
“RLRRICSGILLARRIAGAFVRPVRP (also: GFP fusion) [#88(I12AILI6A/118A)]” was tested, and the “Growth Ratio (mean ± SE)” value (A549.tTA cells [1]; [5]) was 1.1 ± 0.1.
“GRGCIFRWRRGLRGMARAFK (also: GFP fusion) [#41(M16A/L18A)]” was tested, and the “anti-proliferative effect” value (A549.tTA cells [1]) was “reduced the anti-proliferative effect” and the “Growth Ratio (mean ± SE)” value (A549.tTA cells [1]; [5]) was 1.5.
For “synthetic #41 fused with seven Lys (K7) via a linker (GGEEAAKA) at the N-terminus [K7—#41]”, the “change of cellular localization of GFP fusion #41” value [3] was “punctuated localization of GFP and loss of GFP localization in the cell-cell contact area”, the apoptotic nuclei (A549 cells) was “increase in apoptotic nuclei” and the “number of observed cell nuclei remaining” value ([4]; A549 cells, 48 hours exposure, increasing doses) was “ca. 10 % of original values”. For the same substance, the “cell cycle stage distribution” value ([4]; asynchronously growing A549 cells, 48 hours, remaining cells that have not undergone apoptosis) was “G1 phase cells were depleted and the percent of M phase cells increased significantly”.
“TSGLLKLAQAKRKCCIS (cysteine pairing not given here; also: GFP fusion) [#38(V8A)]” was tested, and the “Growth Ratio (mean ± SE)” value (A549.tTA cells [1]; [6]) was 2.7 ± 0.2.
“RWDPTRLLRFRFLRMLVRRSRPVRP (also: GFP fusion) [#40, anti-proliferative peptide tested as GFP fusion]” was tested, and the “cell cycle profile” value (A549.tTA cells [2]) was “no significant change in the DNA content profile”, the “cell death after infection” value (A549.tTA cells [1]) was “did not observe massive cell death” and the “anti-proliferative effect” value (A549.tTA cells [1]) was “significant inhibitors of cell proliferation”. The “Growth Ratio (mean ± SE)” value (A549.tTA cells [1]; [5]) was 2.4 ± 0.3.
With “AALEPPETQPKRKCCIF [CDC42C, C-terminal 17 residues of cell division cycle 42 isoform 2, expressed as GFP-fused peptide, reference compound]” the “anti-proliferative effect” value (A549.tTA cells [1]) was “no significant anti-proliferative activity” and the “Growth Ratio (mean ± SE)” value (A549.tTA cells [1]; [6]) was 1.3 ± 0.1.
For “QAKRKCCIS ({GFP}-QAKRKCCIS; cysteine pairing not given here; also: fused to GFP C-terminus) [#38NΔ(1-8)]”, the “Growth Ratio (mean ± SE)” value (A549.tTA cells [1]; [6]) was 1.5 ± 0.1.
“TSGLAKLVQAKRKCCIS (cysteine pairing not given here; also: GFP fusion) [#38(L5A)]” was tested, and the “Growth Ratio (mean ± SE)” value (A549.tTA cells [1]; [6]) was 1.9 ± 0.2.
With “RLRRICSGILLIRRILGAFVRPVRP (also: GFP fusion) [#88(118A)]” the “Growth Ratio (mean ± SE)” value (A549.tTA cells [1]; [5]) was 1.5.
“TSGALKLVQAKRKCCIS (cysteine pairing not given here; also: GFP fusion) [#38(L4A)]” was tested, and the “Growth Ratio (mean ± SE)” value (A549.tTA cells [1]; [6]) was 2.2 ± 0.1.
In the case of “TSALLKLVQAKRKCCIS (cysteine pairing not given here; also: GFP fusion) [#38(G3A)]”, the “Growth Ratio (mean ± SE)” value (A549.tTA cells [1]; [6]) was 2.7 ± 0.2.
With “GRGCIFRWRRGLRGMMRAFK (also: GFP fusion) [#41(L18A)]” the “anti-proliferative effect” value (A549.tTA cells [1]) was “partial loss of the anti-proliferative effect” and the “Growth Ratio (mean ± SE)” value (A549.tTA cells [1]; [5]) was 1.7.
With “TSGLLKLVQAKRKACIS (not fully specified (N-terminus)) [#38(C14A)]” the “Growth Ratio (mean ± SE)” value (A549.tTA cells [1]; [6]) was 1.1 ± 0.1.
